Experimental findings from US20230250393A1, “PRE-TREATING CARDIOMYOCYTES WITH ANTI-ARRHYTHMIC DRUGS TO REDUCE ENGRAFTMENT ARRHYTHMIA” (priority 2022, published 2023) are described below.

Series [1] relates to engraftment arrhythmia (EA). The conditions noted are these: for Effect: response on EA burden / Effect on HR (heart rate) during EA / Effect on rhythm: cardioversion / restoration of sinus rhythm: acute response, infarcted pigs with hESC-CM transplant in EA, dosages and routes as in Table 1; for Effect on EA heart rate and rhythm in the screen (overall): short-term intravenous infusion or oral treatment. The text has this: The objective of this study was to identify a pharmacological regimen to attenuate arrhythmias following cardiac remuscularization therapy. This study was designed in two phases: the first, to observe the natural history of EA and screen various antiarrhythmic agents for efficacy, and the second, to test for efficacy (FIG. 1). All subjects were 30-40 kg castrated male Yucatan minipigs between 6-13 months of age (S&S Farms). In Phase 1, nine subjects underwent cardiac remuscularization therapy with 500×10^6 hESC-CM delivered by direct surgical transepicardial injections or later, by percutaneous transendocardial injections. The first four subjects (one non-infarcted and three infarcted) were followed to learn the natural history of EA and establish clinical endpoints and parameters for the Phase 2 drug trial. The subsequent five subjects underwent systematic dosing with antiarrhythmic agents with continuous electrocardiography (ECG) monitoring to determine effect on rhythm and rate (Table 1).
(§1) Telemetric ECG was continuously monitored in real-time from the time of myocardial infarction to detect the primary endpoint of cardiac death or unstable EA. Automated quantification of heart rate and arrhythmia burden was performed offline by a board-certified cardiologist using the ecgAUTO™ 3.3.5.10 software package (EMKA Technologies). Arrhythmia was defined as an ectopic beat (e.g. premature ventricular contraction) or rhythm (e.g. idioventricular rhythm, ventricular tachycardia). […] Heart rate and arrhythmia burden were quantified for two continuous minutes every five minutes (40% of total rhythm was counted) and presented as daily averages.
Subjects were administered multiple trials antiarrhythmics and observed for acute response by continuous ECG monitoring. Intravenous agents were delivered as a bolus dose over 2 minutes. Oral agents were administrated by direct observation in a minimum of apples, apple sauce or pumpkin puree with daily feeding and dosed daily for dose escalation. A washout period of at least three days was provided between agents. Amiodarone was administered as the last agent for testing given concern for prolonged half-life and elimination kinetics. All agents were tested in at least two subjects.
In Phase 1 of the study, the inventors screened six canonical antiarrhythmic agents broadly targeting sodium channels, potassium channels, and beta-adrenergic receptors: lidocaine (Ib, sodium channel inhibitor), flecainide (Ic, sodium channel inhibitor), propafenone (Ic, sodium channel inhibitor), amiodarone (III, potassium channel inhibitor), sotalol (III, potassium channel inhibitor) and metoprolol (β1-adrenergic receptor inhibitor) for effect on EA heart rate and rhythm. In addition, the funny current/HCN4 channel antagonist, ivabradine, was tested (Table 1). This series were not meant to be definitive but rather to rapidly identify the candidate agents.

The subject of series [2] is engraftment arrhythmia (EA). The format is in vivo. The note with it: chronic amiodarone. The protocol:
as §1
Data are presented as mean±standard error of the mean (SEM).

A short description of series [3]: Amiodarone drug monitoring by liquid chromatography-mass spectrometry. The format is in vivo. The conditions noted are these: trough, within 1 week of discontinuation of chronic oral amiodarone, 6 pigs, mean ± SEM. As for the experimental part: FIG. 8 Plasma amiodarone levels in pigs. Amiodarone levels were measured in plasma by a custom liquid chromatography-mass spectrometry assay. Chronic oral amiodarone in six pigs was discontinued after achieving electrical maturation and stabilization of engraftment arrythmia. Serum through concentrations of amiodarone were assayed weekly including 3-4 weeks after discontinuation.
A novel liquid chromatography—mass spectrometry assay was established for amiodarone to monitor steady state serum levels in the porcine model and guide oral dosing to ensure efficacy and avoid dose-related toxicity. A target serum level of 1.5-4.0 μg/ml was extrapolated from prior human pharmacokinetic studies (16,17). Elimination kinetics after discontinuation of oral amiodarone therapy were also studied by obtaining weekly trough concentrations in 6 pigs (subjects 6, 7, 8, 13, 14, 16) (FIG. 8).

SMILES strings stand for the structures. Read-outs that look alike come from different tables or passages of the source. Marks after values point to notes of the source that are not given here.

In the case of `COc1cc2c(cc1OC)CC(=O)N(CCCN(C)C[C@H]1Cc3cc(OC)c(OC)cc31)CC2` [Ivabradine, ivabradine], in series [1], the “Effect: response on EA burden” value was “effect (PO only)**, no”. Further, in series [1] (listed as ivabradine), the “Effect on HR (heart rate) during EA” value is “robust dose-dependent effects on heart rate” and the “Effect on rhythm: cardioversion / restoration of sinus rhythm” value is “did not restore sinus rhythm”. Moreover, in series [1] (minipig, in vivo), the “Adverse effects observed in screening” value is reported as “**Severe bradycardia”.
For `COCCc1ccc(OCC(O)CNC(C)C)cc1` (stereo not shown) [Metoprolol, metoprolol], in series [1], the “Effect on HR (heart rate) during EA” value is “Moderate HR effect (IV only),”; the “Effect: response on EA burden” value is on record as “no response on EA burden”; the “Effect on EA heart rate and rhythm in the screen (overall)” value (“Effect on EA heart rate and rhythm” for short) is “no significant effect”.
Take `O=C(NCC1CCCCN1)c1cc(OCC(F)(F)F)ccc1OCC(F)(F)F` (stereo not shown) [Flecainide, flecainide]: in series [1], the “Effect on HR (heart rate) during EA” value was “No response on HR”; the “Effect: response on EA burden” value is reported as “No response”; the “Effect on EA heart rate and rhythm” value is “no significant effect”.
Taken in the same sequence, the figures for `CC(C)NCC(O)c1ccc(NS(C)(=O)=O)cc1` (stereo not shown) [Sotalol, sotalol] were “No response on HR”, “No response” and “no significant effect”.
Turning to `CCCCc1oc2ccccc2c1C(=O)c1cc(I)c(OCCN(CC)CC)c(I)c1` [Amiodarone, amiodarone], the “Effect on HR (heart rate) during EA” value in series [1] is “Modest HR effect”. Also, the “Burden of EA, chronic treatment (in words)” value in series [2] was “reduced the burden of EA chronically”. Also, in series [3], the “Average serum amiodarone after discontinuation” value is 0.42 ± 0.12 µg/mL.
`CCN(CC)CC(=O)Nc1c(C)cccc1C` [Lidocaine, lidocaine]: in series [1], the “Effect on HR (heart rate) during EA” value was “Modest HR effect”; the “Effect on rhythm: cardioversion / restoration of sinus rhythm” value is “rare”; the “Effect on EA heart rate and rhythm” value is “no significant effect”.
